Data reported in patent publication US12458702B2 (NATIONAL TAIWAN UNIVERSITY, priority 2022, dated 2025).
Like-named read-outs stand apart in the source and are kept apart here.

Key:
HCT-116 = assay: Cytotoxicity by SRB assay in HCT-116 cells; format: cell-based, human
Procedure: (§1) The fraction of cell survival was calculated as follows. Survival fraction=(OD treated−blank)/(OD control−blank). […] Each experiment was repeated three times.

[1] = system: CRC cell lines HCT-116 and HT-29; assay: Cytotoxicity against CRC cell lines, summary over both lines (SRB assay); format: cell-based, human; details: HCT-116 and HT-29, with or without GSH
Procedure: as §1

GLUT-1 = assay: 2-NBDG uptake assay in COS-7 cells that overexpress GLUT-1; format: cell-based; details: 50 μM and 100 μM
Procedure: COS-7 cells were seeded in 96-well culture plates and grown in low-glucose Dulbecco's Modified Eagle's medium supplemented with 10% fetal bovine serum and 2 mM L-glutamine for 24 h. After washing with Krebs Ringer bicarbonate buffer (KRB) (10 mM HEPES, 129 mM NaCl, 4.7 mM KCl, 2 mM CaCl2) and 1.2 mM MgSO4, 1.2 mM KH2PO4, 5 mM NaHCO3, pH 7.4), cells were incubated with the compounds to be tested in KRB containing 2-NBDG (200 μM) for 90 min at 37° C. in a 5% CO2 atmosphere, and then washed twice with KRB and lysed with lysis buffer (1% Nonidet P-40, 1% sodium deoxycholate, 40 mM KCl, and 20 mM Tris, pH 7.4). Finally, the lysates were transferred to black 96-well plates and fluorescence intensity was detected with a Multi-Mode Microplate Reader (SpectraMax Paradigm, Beckman Coulter, USA) using an excitation wavelength of 475 nm and an emission wavelength of 550 nm.

HT-29 [2] = assay: Cytotoxicity by SRB assay in HT-29 cells
Procedure: (§2) Cancer cell lines were obtained from ATCC unless otherwise noted. HT-29 and HCT-116 cells were cultured in Dulbecco's Modified Eagle Medium (DMEM, Thermo Fisher Scientific) with 10% fetal bovine serum (FBS, Thermo Fisher Scientific) and 1% antibiotic-antimycotic (Thermo Fisher Scientific).
(§3) Briefly, CRC cells were seeded at a density of 5×10^3 cells/well in 96-well microtiter plates (100 μL/well), separated into two groups with or without GSH. After incubation for 24 hours, the culture medium was replaced by fresh medium (100 μL). […] After incubation, 10% cold trichloroacetic acid was gently added to each well and incubated at 4° C. for 1 h. The medium was removed, carefully washed with water, and dried at room temperature. […] The optical density (O.D.) was measured at 510 nm with Multi-Mode Microplate Reader (SpectraMax Paradigm, Beckman Coulter, U.S.). The fraction of cell survival was calculated as follows. Survival fraction=(OD treated−blank)/(OD control−blank). […] Each experiment was repeated three times.

[3] = system: orthotopic CRC mice model; assay: Orthotopic AOM/DSS-induced CRC mice model, tumor area; format: in vivo, BALB/c mice; details: SN-38 series; i.v. once every two days for two weeks; 40 mg/kg vs irinotecan 40 mg/kg
Procedure: Azoxymethane (AOM)-induced murine CRC model was applied to model human CRC. BALB/c mice (6 weeks of age, male) were intraperitoneally (i.p.) injected once every two weeks with AOM (10 mg/kg body weight) or the PBS vehicle. Seven days after each AOM injection, 2% dextran sulfate sodium (DSS) was given in the drinking water for four days, followed by 3 days of regular water. This cycle was repeated three times. The mice were randomly divided into eight groups (n=5), on day 60 after the first AOM treatment. […] Tumor volumes and body weights were recorded at sacrifice. The tumors were counted under a dissecting microscope, and the area covered by tumors was measured by imaging software (AxioVision LE 4.8.2.0).

HT-29 [4] = system: HT-29
Procedure: as §2, §3

[5] = Homo sapiens, HT-29, 48 h, read-out: IC50 HT-29

O=C(CCc1ccc(O)cc1)c1c(O)cc(OCCOCCOCCS)cc1O[C@@H]1O[C@H](CO)[C@@H](O)C(O)[C@H]1O (stereo partly drawn) [Compound 16, 1-(2-Hydroxy-4-(2-(2-(2-mercaptoethoxy)ethoxy)ethoxy)-6-(((2S,3R,5S,6R)-3,4,5-trihydroxy-6-(hydroxymethyl)tetrahydro-2H-pyran-2-yl)oxy)phenyl)-3-(4-hydroxyphenyl)propan-1-one]
IC50 (HCT-116; Homo sapiens, HCT-116, read-out: IC50 HCT-116 5 mM GSH, 48 h, 5 mM GSH): > 100 µM | IC50 (HCT-116; Homo sapiens, HCT-116, read-out: IC50 HCT-116 5 mM GSH, 72 h, prepared in DMA, 5 mM GSH): > 100 µM | IC50 (HCT-116; Homo sapiens, HCT-116, 48 h, prepared in DMSO, read-out: IC50 HCT-116): > 100 µM | IC50 (HCT-116; Homo sapiens, HCT-116, 48 h, w/o GSH, read-out: IC50 HCT-116 w/o GSH): > 100 µM | IC50 (HCT-116; Homo sapiens, HCT-116, 72 h, prepared in DMA, w/o GSH, read-out: IC50 HCT-116 w/o GSH): > 100 µM | cytotoxicity against CRC cell lines, in words [1]: did not exhibit any inhibitory activity | inhibition of GLUT-1 activity (2-NBDG uptake), in words (GLUT-1): not able to inhibit GLUT-1 | IC50 (HT-29 [2]; [5]): > 100 µM | IC50 (HT-29 [2]; Homo sapiens, HT-29, 48 h, read-out: IC50 HT-29 5 mM GSH): > 100 µM | IC50 (HT-29 [2]; Homo sapiens, HT-29, 48 h, read-out: IC50 HT-29 w/o GSH): > 100 µM | IC50 (HT-29 [2]; read-out: IC50 HT-29 5 mM GSH, 48 h, prepared in DMA, 5 mM GSH): > 100 µM | IC50 (HT-29 [2]; read-out: IC50 HT-29 w/o GSH, 48 h, prepared in DMA, w/o GSH): > 100 µM

CCc1c2c(nc3ccc(OCc4ccc(NC(=O)[C@H](CCCNC(N)=O)NC(=O)[C@@H](NC(=O)CCCCN5C(=O)CC(SCCOCCOCCOc6cc(O)c(C(=O)CCc7ccc(O)cc7)c(O[C@@H]7O[C@H](CO)[C@@H](O)[C@H](O)[C@H]7O)c6)C5=O)C(C)C)cc4)cc13)-c1cc3c(c(=O)n1C2)COC(=O)[C@]3(O)CC (some centres unmarked) [Compound 37]
IC50 (HCT-116; 48 h, prepared in DMSO, read-out: IC50 HCT-116): 3.25 ± 0.42 µM | IC50 (HCT-116; Homo sapiens, HCT-116, 48 h, 48 h, prepared in DMSO, read-out: IC50 HCT-116): 3 to 7 µM | anti-tumor efficacy (tumor area), in words [3]: ameliorated the tumor area | cytotoxicity in HT-29 cell line, in words (HT-29 [4]): less sensitive | IC50 (HT-29 [2]; [5]): > 100 µM
